Measured values reported in paper PMC8836905, “Structural and Biochemical Analysis of the Furan Aldehyde Reductase YugJ from Bacillus subtilis” (International Journal of Molecular Sciences, 2022).

How the values were obtained:
[1] = molecular target: T1, YugJ (Bacillus spizizenii, UniProt Z9GGM4DFS4); assay: X-ray crystal structure; format: binding
T1 construct: full-length residues 1-387; N-terminal His6 tag removed with thrombin; E. coli BL21(DE3); homodimer

[2] = molecular target: T1, YugJ; assay: NADPH oxidation at […] nm, HMF reduction; format: biochemical; settings: 3 mM HMF, 0.2 mM NADPH, Ni2+-bound YugJ, 50 mM HEPES pH 7.4, 150 mM NaCl, 23 °C; presumed competitive
[3] = molecular target: YugJ from Bacillus subtilis (furan aldehyde reductase) (B. subtilis subsp. spizizenii) (UniProt O05239); assay: SEC; gel filtration on Superdex 200 10/300 in 20 mM Tris, pH 8.0, 150 mM NaCl, 5 mM β-mercaptoethanol; eluted between 44 and 158 kDa standards

YugJ from Bacillus subtilis (furan aldehyde reductase), sequence (O05239 whole entry): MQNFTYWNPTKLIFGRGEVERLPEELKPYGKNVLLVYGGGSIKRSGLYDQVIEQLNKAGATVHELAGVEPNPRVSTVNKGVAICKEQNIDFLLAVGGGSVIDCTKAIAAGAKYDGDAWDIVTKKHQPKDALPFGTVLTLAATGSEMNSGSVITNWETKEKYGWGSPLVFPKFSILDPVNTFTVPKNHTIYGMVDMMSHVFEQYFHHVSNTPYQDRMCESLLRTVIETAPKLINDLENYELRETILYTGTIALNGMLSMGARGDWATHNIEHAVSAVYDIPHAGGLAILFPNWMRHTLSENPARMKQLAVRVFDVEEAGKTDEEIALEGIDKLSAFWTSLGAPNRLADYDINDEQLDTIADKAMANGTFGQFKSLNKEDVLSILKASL

`O=[N+]([O-])O` [nitrate] was tested, and the X-ray crystal structure ([1]; 1.65 Å, with NADP, 0.3 M ammonium nitrate in crystallisation, pH 6.5, near nicotinamide ring, putative substrate site) was “nitrate ion forms hydrogen bonds with the nicotinamide-linked ribose moiety of NADP” and the “% inhibition at 360 mM lithium nitrate” value [2] was ~ 75%.
In the case of `NC(=O)c1ccc[n+]([C@@H]2O[C@H](COP(=O)(O)OP(=O)(O)OC[C@H]3O[C@@H](n4cnc5c(N)ncnc54)[C@H](OP(=O)(O)O)[C@@H]3O)[C@@H](O)[C@H]2O)c1` [NADP], the X-ray crystal structure ([1]; 1.65 Å with nitrate (7W9Z), 1.93 Å with Ni2+, nicotinamide disordered (7W9Y), interdomain cleft) is reported as “we determined the crystal structures of YugJ in complex with NADP in two crystal forms”.
“YugJ from Bacillus subtilis (furan aldehyde reductase) (from UniProt O05239 1-387) (enzyme)” was tested, and the stoichiometry N [3] was 2.
